Some results are limits rather than exact numbers.

The test system of this assay is α-SMA. In words: α-SMA expression inhibitory ability in MRC5 cell line (Western blotting). It counts as cell-based. Particulars: TGF-β1 (10 ng/mL), 72 hours, relative to TGF-β1 only. On the procedure:
Subsequently, the inhibitory effect on pulmonary fibrosis of the compounds according to the present invention was overall evaluated. An MRC5 cell line was treated with each compound at 10 μM, and 2 hours later, treated with TGF-β1 (10 ng/mL). After 72 hours, the cells were lysed using RIPA Buffer, and then an α-SMA protein level was measured through Western blotting. The α-SMA expression level when treating the cells with each compound and TGF-β1 compared to the α-SMA expression level when treating the cells only with TGF-β1 without the compound was calculated as the α-SMA expression inhibitory ability of the corresponding compound. The α-SMA expression inhibitory ability of each compound is summarized in Table 2 below (A: inhibitory ability≥70%, B: 50%: inhibitory ability<70%, C: inhibitory ability<50%).
Turning to `C[C@@H]1CCCCN1CCC(=O)N1CCN(c2ccc(F)cc2)c2ccccc21` [Compound 19, (R)-1-(4-(4-fluorophenyl)-3,4-dihydroquinoxaline-1(2H)-yl)-3-(2-methylpiperidin-1-yl)propan-1-one], the inhibition at 10 µM is under 50%. Consider `O=C(CN1CCCC1)N1CCN(C(=O)c2ccccc2)c2ccccc21` [Compound 202, 1-(4-benzoyl-3,4-dihydroquinoxaline-1(2H)-yl)-2-(pyrrolidin-1-yl)ethan-1-one], for which the inhibition at 10 µM is under 50%.

As for `O=C(CCN1CCOCC1)N1CCN(c2ccc(F)cc2)c2cc(F)ccc21` [Compound 37, 1-(6-fluoro-4-(4-fluorophenyl)-3,4-dihydroquinoxaline-1(2H)-yl)-3-morpholinopropan-1-one], the inhibition at 10 µM is under 50%. Molecule `CC(C(=O)N1CCN(c2ccccc2Cl)c2ccccc21)N1CCCCC1` (stereo not shown) [Compound 129, 1-(4-(2-chlorophenyl)-3,4-dihydroquinoxaline-1(2H)-yl)-2-(piperidin-1-yl)propan-1-one] had an inhibition at 10 µM of at least 70%. In the case of `CC(C(=O)N1CCN(C2CCCCC2)c2ccccc21)N1CCN(C)CC1` (stereo not shown) [Compound 192, 1-(4-cyclohexyl-3,4-dihydroquinoxaline-1(2H)-yl)-2-(4-methylpiperazin-1-yl)propan-1-one] it was under 50%; in that of `CN1CCN(CCC(=O)N2CCN(Cc3ccccc3Cl)c3ccccc32)CC1` [Compound 89, 1-(4-(2-chlorobenzyl)-3,4-dihydroquinoxaline-1(2H)-yl)-3-(4-methylpiperazin-1-yl)propan-1-one], 50 to 70%. In the case of `CC(C)CN1CCN(C(=O)CN2CCN(C)CC2)c2ccccc21` [Compound 176, 1-(4-isobutyl-3,4-dihydroquinoxaline-1(2H)-yl)-2-(4-methylpiperazin-1-yl)ethan-1-one] it was under 50%; in that of `CC(C(=O)N1CCN(Cc2cccc(Cl)c2)c2ccccc21)N1CCN(C)CC1` (stereo not shown) [Compound 101, 1-(4-(3-chlorobenzyl)-3,4-dihydroquinoxaline-1(2H)-yl)-2-(4-methylpiperazin-1-yl)propan-1-one], 50 to 70%. Regarding `O=C(CCc1cnc[nH]1)N1CCN(c2ccc(F)cc2)c2ccccc21` [Compound 29, 1-(4-(4-fluorophenyl)-3,4-dihydroquinoxaline-1(2H)-yl)-3-(1H-imidazol-5-yl)propan-1-one], the inhibition at 10 µM is at least 70%. `O=C(CN1CCCCC1)N1CCN(c2ccccn2)c2ccccc21` [Compound 153, 2-(piperidin-1-yl)-1-(4-(pyridin-2-yl)-3,4-dihydroquinoxaline-1(2H)-yl)ethan-1-one] yielded an inhibition at 10 µM of at least 70%.

`CC(C(=O)N1CCN(c2ccccc2)c2cc(F)ccc21)N1CCN(C)CC1` (stereo not shown) [Compound 11, 1-(6-fluoro-4-phenyl-3,4-dihydroquinoxaline-1(2H)-yl)-2-(4-methylpiperazin-1-yl)propan-1-one] returned an inhibition at 10 µM of 50 to 70%. Consider `O=C(CN1CCCCC1)N1CCN(C(=O)c2ccccc2)c2ccccc21` [Compound 203, 1-(4-benzoyl-3,4-dihydroquinoxaline-1(2H)-yl)-2-(piperidin-1-yl)ethan-1-one], for which the inhibition at 10 µM was under 50%. On to `C[C@@H]1CCCN1CCC(=O)N1CCN(c2ccccc2)c2cc(F)ccc21` [Compound 5, (R)-1-(6-fluoro-4-phenyl-3,4-dihydroquinoxaline-1(2H)-yl)-3-(2-methylpyrrolidin-1-yl)propan-1-one], for which the inhibition at 10 µM is under 50%. For `O=C(CCN1CCCCC1)N1CCN(c2ccccc2Cl)c2ccccc21` [Compound 126, 1-(4-(2-chlorophenyl)-3,4-dihydroquinoxaline-1(2H)-yl)-3-(piperidin-1-yl)propan-1-one], the inhibition at 10 µM lay in the range of 50 to 70%. Turning to `CC(C(=O)N1CCN(c2cccc(Cl)c2)c2ccccc21)N1CCN(C)CC1` (stereo not shown) [Compound 137, 1-(4-(3-chlorophenyl)-3,4-dihydroquinoxaline-1(2H)-yl)-2-(4-methylpiperazin-1-yl)propan-1-one], the inhibition at 10 µM was at least 70%. The molecule `O=C(CCN1CCCC1)N1CCN(Cc2ccccn2)c2ccccc21` [Compound 114, 1-(4-(pyridin-2-ylmethyl)-3,4-dihydroquinoxaline-1(2H)-yl)-3-(pyrrolidin-1-yl)propan-1-one di-oxalate] showed an inhibition at 10 µM of 50 to 70%. For the molecule `O=C(CN1CCN(c2ccccc2)c2ccccc21)N1CCN2CCCC2C1` (stereo not shown) [Compound 75], the inhibition at 10 µM lay within 50 to 70%. In the case of `CN1CCN(CCC(=O)N2CCN(c3ccc(F)cc3)c3ccccc32)CC1` [Compound 17, 1-(4-(4-fluorophenyl)-3,4-dihydroquinoxaline-1(2H)-yl)-3-(4-methylpiperazin-1-yl)propan-1-one di-p-toluene sulfonate] it was 50 to 70%. `O=C(CN1CCN(c2ccccc2)c2ccccc21)N1CCN(C2CC2)CC1` [Compound 76, 1-(4-cyclopropylpiperazin-1-yl)-2-(4-phenyl-3,4-dihydroquinoxaline-1(2H)-yl)ethan-1-one] yielded an inhibition at 10 µM of under 50%. The figure for `CN1CCN(CCC(=O)N2CCN(c3ccccc3Cl)c3ccccc32)CC1` [Compound 127, 1-(4-(2-chlorophenyl)-3,4-dihydroquinoxaline-1(2H)-yl)-3-(4-methylpiperazin-1-yl)propan-1-one] is 50 to 70%; for `CN1CCN(CC(=O)N2CCN(C(=O)c3ccccc3)c3ccccc32)CC1` [Compound 204, 1-(4-benzoyl-3,4-dihydroquinoxaline-1(2H)-yl)-2-(4-methylpiperazin-1-yl)ethan-1-one] it is under 50%; for `CN1CCN(CC(=O)N2CCN(Cc3ccccc3Cl)c3ccccc32)CC1` [Compound 95, 1-(4-(2-chlorobenzyl)-3,4-dihydroquinoxaline-1(2H)-yl)-2-(4-methylpiperazin-1-yl)ethan-1-one] it is 50 to 70%. In turn, `CC(C(=O)N1CCN(C(=O)c2ccccc2)c2ccccc21)N1CCCC1` (stereo not shown) [Compound 199, 1-(4-benzoyl-3,4-dihydroquinoxaline-1(2H)-yl)-2-(pyrrolidin-1-yl)propan-1-one] had an inhibition at 10 µM of under 50%. Take `O=C(CCN1CCCC1)N1CCN(c2ccccc2Cl)c2ccccc21` [Compound 125, 1-(4-(2-chlorophenyl)-3,4-dihydroquinoxaline-1(2H)-yl)-3-(pyrrolidin-1-yl)propan-1-one]: the inhibition at 10 µM lay in the range of 50 to 70%. In the case of `O=C(CCN1CCN2CCCC2C1)N1CCN(c2ccc(F)cc2)c2cc(F)ccc21` (stereo not shown) [Compound 42, 1-(6-fluoro-4-(4-fluorophenyl)-3,4-dihydroquinoxaline-1(2H)-yl)-3-(hexahydropyrrolo[1,2-a]pyrazin-2(1H)-yl)propan-1-one] it was under 50%; in that of `CC(C(=O)N1CCN(c2ccc(F)cc2)c2ccccc21)N1CCN(C)CC1` (stereo not shown) [Compound 34, 1-(4-(4-fluorophenyl)-3,4-dihydroquinoxaline-1(2H)-yl)-2-(4-methylpiperazin-1-yl)propan-1-one], under 50%. The figure for `O=C(CN1CCCC1)N1CCN(Cc2ccccn2)c2ccccc21` [Compound 117, 1-(4-(pyridin-2-ylmethyl)-3,4-dihydroquinoxaline-1(2H)-yl)-2-(pyrrolidin-1-yl)ethan-1-one] is under 50%. Consider `CC(C(=O)N1CCN(CC2CC2)c2ccccc21)N1CCN(C)CC1` (stereo not shown) [Compound 166, 1-(4-(cyclopropylmethyl)-3,4-dihydroquinoxaline-1(2H)-yl)-2-(4-methylpiperazin-1-yl)propan-1-one], for which the inhibition at 10 µM was under 50%. In the case of `CC(C(=O)N1CCN(C(C)C)c2ccccc21)N1CCCCC1` (stereo not shown) [Compound 181, 1-(4-isopropyl-3,4-dihydroquinoxaline-1(2H)-yl)-2-(piperidin-1-yl)propan-1-one] it was under 50%; in that of `CC(C(=O)N1CCN(C(C)C)c2ccccc21)N1CCN(C)CC1` (stereo not shown) [Compound 182, 1-(4-isopropyl-3,4-dihydroquinoxaline-1(2H)-yl)-2-(4-methylpiperazin-1-yl)propan-1-one], under 50%.

`O=C(CCN1CCCC1)N1CCN(c2ccccn2)c2ccccc21` [Compound 146] had an inhibition at 10 µM of under 50%. The figure for `O=C(CN1CCCCC1)N1CCN(c2ccccc2Cl)c2ccccc21` [Compound 132, 1-(4-(2-chlorophenyl)-3,4-dihydroquinoxaline-1(2H)-yl)-2-(piperidin-1-yl)ethan-1-one] is 50 to 70%. Consider `O=C(CCN1CCCCC1)N1CCN(c2ccccc2)c2cc(F)ccc21` [Compound 3, 1-(6-fluoro-4-phenyl-3,4-dihydroquinoxaline-1(2H)-yl)-3-(piperidin-1-yl)propan-1-one], for which the inhibition at 10 µM lay within 50 to 70%. As to `N[C@@H](Cc1c[nH]cn1)C(=O)N1CCN(c2ccc(F)cc2)c2cc(F)ccc21` [Compound 47, (S)-2-amino-1-(6-fluoro-4-(4-fluorophenyl)-3,4-dihydroquinoxaline-1(2H)-yl)-3-(1H-imidazol-4-yl)propan-1-one], the inhibition at 10 µM was 50 to 70%. In turn, `C[C@@H]1CCCCN1CCC(=O)N1CCN(c2ccc(F)cc2)c2cc(F)ccc21` [Compound 41, (R)-1-(6-fluoro-4-(4-fluorophenyl)-3,4-dihydroquinoxaline-1(2H)-yl)-3-(2-methylpiperidin-1-yl)propan-1-one] came in with an inhibition at 10 µM of under 50%. The molecule `CC(C)CN1CCN(C(=O)CCN2CCN(C)CC2)c2ccccc21` [Compound 170, 1-(4-isobutyl-3,4-dihydroquinoxaline-1(2H)-yl)-3-(4-methylpiperazin-1-yl)propan-1-one di L-tartrate] registered an inhibition at 10 µM of 50 to 70%. Molecule `CC(C)CN1CCN(C(=O)CN2CCCC2)c2ccccc21` [Compound 174, 1-(4-isobutyl-3,4-dihydroquinoxaline-1(2H)-yl)-2-(pyrrolidin-1-yl)ethan-1-one] showed an inhibition at 10 µM of 50 to 70%.

One may read the inhibition as how much of the control response was suppressed. Read a high inhibition as strong suppression.

Values taken from patent US20250002464A1, “NOVEL COMPOUND AND PHARMACEUTICAL COMPOSITION COMPRISING SAME” (SAPIENSBIO INC., priority 2021, published 2025).
